Reference: patent US7601716B2, “Pyridopyrazines and derivatives thereof as ALK and c-Met inhibitors” (Cephalon, Inc., priority 2006, dated 2009)

Target: baculovirus-expressed ALK (Homo sapiens, UniProt Q9UM73)
Experiment: ALK Kinase Assay (ELISA/TRF, PLC-γ substrate); also: 1 µM ATP (Km level)
Assay type: biochemical
Settings: read-out: ALK Kinase Inhibition (IC50)
Description: Example compounds were tested for their ability to inhibit the kinase activity of baculovirus-expressed ALK using a modification of the ELISA protocol reported for trkA in Angeles, T. S. et al., Anal. Biochem. 1996, 236, 49-55, which is incorporated herein by reference in its entirety. Phosphorylation of the substrate, phospholipase C-gamma (PLC-γ) generated as a fusion protein with glutathione S-transferase (GST) as reported in Rotin, D. et al., EMBO J. 1992, 11, 559-567, which is incorporated herein by reference in its entirety, was detected with a europium-labeled anti-phosphotyrosine antibody and measured by time-resolved fluorescence (TRF). Briefly, each 96-well plate was coated with 100 μL/well of 10 μg/mL substrate (phospholipase C-γ) in Tris-buffered saline (TBS). […] The reaction was initiated by adding enzyme (30 ng/ml ALK) and was allowed to proceed at 37° C. for 15 minutes. Detection of the phosphorylated product was performed by adding 100 μl/well of Eu-N1 labeled PT66 antibody (Perkin Elmer # AD0041). Incubation at 37° C. then proceeded for one (1) hour, followed by addition of 100 μL enhancement solution (Wallac #1244-105). The plate was gently agitated and after thirty minutes, the fluorescence of the resulting solution was measured using the EnVision 2100 (or 2102) multilabel plate reader (Perkin Elmer).
Data analysis was performed using ActivityBase (IDBS, Guilford, UK). IC50 values were calculated by plotting percent inhibition versus log10 of the concentration of compound and fitting to the nonlinear regression sigmoidal dose-response (variable slope) equation in XLFit (IDBS, Guilford, UK).

Chain of baculovirus-expressed ALK (Q9UM73 19-1620): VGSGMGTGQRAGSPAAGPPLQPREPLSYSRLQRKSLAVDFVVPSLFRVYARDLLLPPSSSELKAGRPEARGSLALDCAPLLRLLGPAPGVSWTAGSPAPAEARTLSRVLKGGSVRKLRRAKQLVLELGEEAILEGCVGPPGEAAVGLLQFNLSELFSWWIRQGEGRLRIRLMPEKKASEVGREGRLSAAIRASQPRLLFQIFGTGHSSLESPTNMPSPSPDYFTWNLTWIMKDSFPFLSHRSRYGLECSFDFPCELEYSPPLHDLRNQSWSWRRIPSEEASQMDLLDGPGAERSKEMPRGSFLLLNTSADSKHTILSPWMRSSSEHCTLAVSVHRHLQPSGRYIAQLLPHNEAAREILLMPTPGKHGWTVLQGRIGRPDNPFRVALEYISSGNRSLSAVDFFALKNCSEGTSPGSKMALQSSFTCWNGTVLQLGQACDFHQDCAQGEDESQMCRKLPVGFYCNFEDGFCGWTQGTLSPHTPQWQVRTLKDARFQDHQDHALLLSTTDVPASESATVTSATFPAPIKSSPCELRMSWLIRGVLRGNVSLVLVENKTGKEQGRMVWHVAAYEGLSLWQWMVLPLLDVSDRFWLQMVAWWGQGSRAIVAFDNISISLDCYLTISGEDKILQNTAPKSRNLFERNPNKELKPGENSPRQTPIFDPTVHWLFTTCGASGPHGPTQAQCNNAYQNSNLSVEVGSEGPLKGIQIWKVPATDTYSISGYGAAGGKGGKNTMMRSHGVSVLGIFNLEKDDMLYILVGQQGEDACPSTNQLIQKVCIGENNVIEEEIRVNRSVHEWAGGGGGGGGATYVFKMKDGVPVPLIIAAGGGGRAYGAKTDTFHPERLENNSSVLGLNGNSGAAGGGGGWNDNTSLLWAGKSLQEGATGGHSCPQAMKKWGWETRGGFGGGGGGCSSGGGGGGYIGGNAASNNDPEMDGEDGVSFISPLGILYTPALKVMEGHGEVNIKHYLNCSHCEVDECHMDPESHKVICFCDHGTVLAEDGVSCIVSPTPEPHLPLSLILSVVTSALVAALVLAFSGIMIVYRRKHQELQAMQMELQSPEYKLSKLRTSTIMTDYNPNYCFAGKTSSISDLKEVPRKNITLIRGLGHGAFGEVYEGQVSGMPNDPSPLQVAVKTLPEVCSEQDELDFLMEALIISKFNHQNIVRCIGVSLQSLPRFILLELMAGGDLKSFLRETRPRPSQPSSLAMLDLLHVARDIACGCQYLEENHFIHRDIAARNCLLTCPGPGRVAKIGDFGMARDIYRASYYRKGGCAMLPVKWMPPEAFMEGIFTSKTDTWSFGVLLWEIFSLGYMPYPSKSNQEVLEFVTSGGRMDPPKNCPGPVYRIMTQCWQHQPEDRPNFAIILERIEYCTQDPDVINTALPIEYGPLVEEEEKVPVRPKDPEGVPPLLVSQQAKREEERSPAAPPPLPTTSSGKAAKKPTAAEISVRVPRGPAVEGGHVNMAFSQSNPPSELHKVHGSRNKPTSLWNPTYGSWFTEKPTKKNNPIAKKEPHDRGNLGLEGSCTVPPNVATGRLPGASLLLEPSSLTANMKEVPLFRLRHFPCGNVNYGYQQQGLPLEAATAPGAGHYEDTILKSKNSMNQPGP

Compound	IC50 [nM]
O=C(NCc1csc(-c2ccccc2)n1)c1cccc(-c2cnc3c(c2)N(Cc2cc(Cl)ccc2C(F)(F)F)CCN3)c1 [Example 340, 3-{1-[5-Chloro-2-(trifluoromethyl)benzyl]-1,2,3,4-tetrahydropyrido[2,3-b]pyrazin-7-yl}-N-(2-phenylthiazol-4-ylmethyl)benzamide]	100 to 1000
CCOC(=O)N1CCC(NC(=O)c2ccc(-c3cnc4c(c3)N(Cc3cc(Cl)ccc3C(F)(F)F)CCN4)cc2)CC1 [Example 389, 4-(4-{1-[5-Chloro-2-(trifluoromethyl)benzyl]-1,2,3,4-tetrahydropyrido[2,3-b]pyrazin-7-yl}benzoylamino)piperidine-1-carboxylic acid ethyl ester]	100 to 1000
O=C(c1ccc(-c2cnc3c(c2)N(Cc2cc(Cl)ccc2C(F)(F)F)CCN3)cc1)N1CCCC1c1cccnc1 (centres unmarked) [Example 431, (4-{1-[5-Chloro-2-(trifluoromethyl)benzyl]-1,2,3,4-tetrahydropyrido[2,3-b]pyrazin-7-yl}phenyl)-(2-pyridin-3-yl-pyrrolidin-1-yl)methanone]	100 to 1000
NS(=O)(=O)c1ccc(CNC(=O)c2ccc(-c3cnc4c(c3)N(Cc3cc(Cl)ccc3C(F)(F)F)CCN4)cc2)cc1 [Example 429, 4-{1-[5-Chloro-2-(trifluoromethyl)benzyl]-1,2,3,4-tetrahydropyrido[2,3-b]pyrazin-7-yl}-N-(4-sulfamoylbenzyl)benzamide]	100 to 1000
O=C(NCc1cccc(Cl)c1)c1cccc(-c2cnc3c(c2)N(Cc2cc(Cl)ccc2C(F)(F)F)CCN3)c1 [Example 350, N-(3-Chlorobenzyl)-3-{1-[5-Chloro-2-(trifluoromethyl)benzyl]-1,2,3,4-tetrahydropyrido[2,3-b]pyrazin-7-yl}benzamide]	1000 to 10000
O=C(c1ccc(-c2cnc3c(c2)N(Cc2cc(Cl)ccc2C(F)(F)F)CCN3)cc1)N1CCN(Cc2ccc(Cl)cc2)CC1 [Example 383, [4-(4-Chlorobenzyl)piperazin-1-yl]-(4-{1-[5-chloro-2-(trifluoromethyl)benzyl]-1,2,3,4-tetrahydropyrido[2,3-b]pyrazin-7-yl}phenyl)methanone]	100 to 1000
O=C(NCc1ccncc1)c1cccc(-c2cnc3c(c2)N(Cc2cc(Cl)ccc2C(F)(F)F)CCN3)c1 [Example 334, 3-{1-[5-Chloro-2-(trifluoromethyl)benzyl]-1,2,3,4-tetrahydropyrido[2,3-b]pyrazin-7-yl}-N-pyridin-4-ylmethylbenzamide]	< 100
NS(=O)(=O)c1ccc(CCNC(=O)c2ccc(-c3cnc4c(c3)N(Cc3cc(Cl)ccc3C(F)(F)F)CCN4)cc2)cc1 [Example 405, 4-{1-[5-Chloro-2-(trifluoromethyl)benzyl]-1,2,3,4-tetrahydropyrido[2,3-b]pyrazin-7-yl}-N-[2-(4-sulfamoylphenyl)ethyl]benzamide]	100 to 1000
O=C(c1cccc(-c2cnc3c(c2)N(Cc2cc(Cl)ccc2C(F)(F)F)CCN3)c1)N1CCN(c2cnccn2)CC1 [Example 339, (3-{1-[5-Chloro-2-(trifluoromethyl)benzyl]-1,2,3,4-tetrahydropyrido[2,3-b]pyrazin-7-yl}phenyl)-(2,3,5,6-tetrahydro-[1,2′]bipyrazinyl-4-yl)methanone]	100 to 1000
COc1cccc(N2CCN(C(=O)c3cccc(-c4cnc5c(c4)N(Cc4cc(Cl)ccc4C(F)(F)F)CCN5)c3)CC2)c1 [Example 344, (3-{1-[5-Chloro-2-(trifluoromethyl)benzyl]-1,2,3,4-tetrahydropyrido[2,3-b]pyrazin-7-yl}phenyl)-[4-(3-methoxyphenyl)piperazin-1-yl]methanone]	100 to 1000
O=C(NCc1ccc(Cl)cc1)c1ccc(-c2cnc3c(c2)N(Cc2cc(Cl)ccc2C(F)(F)F)CCN3)cc1 [Example 413, N-(4-Chlorobenzyl)-4-{1-[5-chloro-2-(trifluoromethyl)benzyl]-1,2,3,4-tetrahydropyrido[2,3-b]pyrazin-7-yl}benzamide]	100 to 1000
O=C(NC1CCN(Cc2ccccc2)CC1)c1cccc(-c2cnc3c(c2)N(Cc2cc(Cl)ccc2C(F)(F)F)CCN3)c1 [Example 327, N-(1-Benzylpiperidin-4-yl)-3-{1-[5-chloro-2-(trifluoromethyl)benzyl]-1,2,3,4-tetrahydropyrido[2,3-b]pyrazin-7-yl}benzamide]	< 100
O=C(c1ccc(-c2cnc3c(c2)N(Cc2cc(Cl)ccc2C(F)(F)F)CCN3)cc1)N1CCC(O)(c2ccc(Cl)cc2)CC1 [Example 371, [4-(4-Chlorophenyl)-4-hydroxypiperidin-1-yl]-(4-{1-[5-chloro-2-(trifluoromethyl)benzyl]-1,2,3,4-tetrahydropyrido[2,3-b]pyrazin-7-yl}phenyl)methanone]	100 to 1000
O=C(c1cccc(-c2cnc3c(c2)N(Cc2cc(Cl)ccc2C(F)(F)F)CCN3)c1)N1CCN(C(c2ccccc2)c2ccccc2)CC1 [Example 315, (4-Benzhydrylpiperazin-1-yl)-(3-{1-[5-Chloro-2-(trifluoromethyl)benzyl]-1,2,3,4-tetrahydropyrido[2,3-b]pyrazin-7-yl}phenyl)methanone]	1000 to 10000
O=C(c1cccc(-c2cnc3c(c2)N(Cc2cc(Cl)ccc2C(F)(F)F)CCN3)c1)N1CCOCC1 [Example 341, (3-{1-[5-Chloro-2-(trifluoromethyl)benzyl]-1,2,3,4-tetrahydropyrido[2,3-b]pyrazin-7-yl}phenyl)morpholin-4-ylmethanone]	100 to 1000
O=C(c1cccc(-c2cnc3c(c2)N(Cc2cc(Cl)ccc2C(F)(F)F)CCN3)c1)N1CCN(C(=O)C2CCCO2)CC1 (centres unmarked) [Example 351, (3-{1-[5-Chloro-2-(trifluoromethyl)benzyl]-1,2,3,4-tetrahydropyrido[2,3-b]pyrazin-7-yl}phenyl)-[4-(tetrahydrofuran-2-carbonyl)piperazin-1-yl]methanone]	100 to 1000
O=C(NCC(c1ccccc1)c1ccccc1)c1ccc(-c2cnc3c(c2)N(Cc2cc(Cl)ccc2C(F)(F)F)CCN3)cc1 [Example 391, 4-{1-[5-Chloro-2-(trifluoromethyl)benzyl]-1,2,3,4-tetrahydropyrido[2,3-b]pyrazin-7-yl}-N-(2,2-diphenylethyl)benzamide]	100 to 1000
O=C(NCc1ccccc1)c1cccc(-c2cnc3c(c2)N(Cc2cc(Cl)ccc2C(F)(F)F)CCN3)c1 [Example 356, N-Benzyl-3-{1-[5-Chloro-2-(trifluoromethyl)benzyl]-1,2,3,4-tetrahydropyrido[2,3-b]pyrazin-7-yl}benzamide]	100 to 1000
CN1CCC(NC(=O)c2cccc(-c3cnc4c(c3)N(Cc3cc(Cl)ccc3C(F)(F)F)CCN4)c2)CC1 [Example 329, 3-{1-[5-Chloro-2-(trifluoromethyl)benzyl]-1,2,3,4-tetrahydropyrido[2,3-b]pyrazin-7-yl}-N-(1-methylpiperidin-4-yl)benzamide]	< 100
O=C(NCc1cc(C(F)(F)F)cc(C(F)(F)F)c1)c1cccc(-c2cnc3c(c2)N(Cc2cc(Cl)ccc2C(F)(F)F)CCN3)c1 [Example 332, N-[3,5-Bis(trifluoromethyl)benzyl]-3-{1-[5-chloro-2-(trifluoromethyl)benzyl]-1,2,3,4-tetrahydropyrido[2,3-b]pyrazin-7-yl}benzamide]	100 to 1000
O=C(c1ccc(-c2cnc3c(c2)N(Cc2cc(Cl)ccc2C(F)(F)F)CCN3)cc1)N1CCN(c2ccc(Cl)cc2)CC1 [Example 370, [4-(4-Chlorophenyl)piperazin-1-yl]-(4-{1-[5-chloro-2-(trifluoromethyl)benzyl]-1,2,3,4-tetrahydropyrido[2,3-b]pyrazin-7-yl}phenyl)methanone]	100 to 1000
O=C(NCc1ccncc1)c1ccc(-c2cnc3c(c2)N(Cc2cc(Cl)ccc2C(F)(F)F)CCN3)cc1 [Example 400, 4-{1-[5-Chloro-2-(trifluoromethyl)benzyl]-1,2,3,4-tetrahydropyrido[2,3-b]pyrazin-7-yl}-N-pyridin-4-ylmethylbenzamide]	100 to 1000
O=C(c1ccc(-c2cnc3c(c2)N(Cc2cc(Cl)ccc2C(F)(F)F)CCN3)cc1)N1CCN(c2ccc(Cl)c(Cl)c2)CC1 [Example 379, (4-{1-[5-Chloro-2-(trifluoromethyl)benzyl]-1,2,3,4-tetrahydropyrido[2,3-b]pyrazin-7-yl}phenyl)-[4-(3,4-dichlorophenyl)piperazin-1-yl]methanone]	100 to 1000
O=C(NC1CCN(Cc2ccccc2)C1)c1cccc(-c2cnc3c(c2)N(Cc2cc(Cl)ccc2C(F)(F)F)CCN3)c1 (centres unmarked) [Example 361, N-(1-Benzylpyrrolidin-3-yl)-3-{1-[5-chloro-2-(trifluoromethyl)benzyl]-1,2,3,4-tetrahydropyrido[2,3-b]pyrazin-7-yl}benzamide]	< 100
O=C(NCc1ccc(C(F)(F)F)cc1)c1ccc(-c2cnc3c(c2)N(Cc2cc(Cl)ccc2C(F)(F)F)CCN3)cc1 [Example 396, 4-{1-[5-Chloro-2-(trifluoromethyl)benzyl]-1,2,3,4-tetrahydropyrido[2,3-b]pyrazin-7-yl}-N-[4-(trifluoromethyl)benzyl]benzamide]	100 to 1000
O=C(NCCc1ccccn1)c1ccc(-c2cnc3c(c2)N(Cc2cc(Cl)ccc2C(F)(F)F)CCN3)cc1 [Example 388, 4-{1-[5-Chloro-2-(trifluoromethyl)benzyl]-1,2,3,4-tetrahydropyrido[2,3-b]pyrazin-7-yl}-N-(2-pyridin-2-yl-ethyl)benzamide]	100 to 1000
